Patent publication US20240026461A1, “BCL10 MUTATIONS AS BIOMARKERS FOR TARGETED THERAPY IN B CELL LYMPHOMAS” (priority 2022, published 2024)
Where two headings read alike, the source gives them in different places.

Key:
[1] = test system: HBL1^E140X; experiment: Growth inhibition assay (CellTiter Glo), HBL1 cells expressing BCL10 E140X; type: cell-based; conditions: Homo sapiens, 96 h
Method: (§1) DLBCL cell lines were cultured in exponential condition and the cell growth was determined by CellTiter Glo (Promega). 3000-5000 cells were seeded and cultured in each well of 384 well plate for 96 h and treated with compounds every 48 h. Luminescence was read at the endpoint with the Synergy NEO microplate reader (BioTek). The value of compound treated cells was normalized to their vehicle treated controls and then used to calculate IC50 in GraphPad Prism (RRID:SCR_002798).
(§2) Given the distinct functional profiles, CARD11 dependencies, and MALT1 activation effects of the BCL10 CARD and truncation mutants, the inventors designed experiments to evaluate whether, and to what extent, these mutant BCL10 proteins might confer BTK inhibitor resistance. Isogenic ABC-DLBCL cells expressing BCL10WT, BCL10^R58Q and BCL10^E140X proteins were treated with escalating doses of three chemically distinct covalent BTK inhibitors: ibrutinib, acalabrutinib, or zanubrutinib. The cellular proliferation rates of the treated cells were measured using an ATP fluorescence assay after 96 hours of drug exposure.
(§3) Isogenic BCL10^WT, BCL10^R58Q and BCL10^E140X ABC-DLBCLs were exposed to increasing concentrations of each of these compounds for 96 hours.

[2] = test system: OCI-LY10^R58Q; experiment: Growth inhibition assay (CellTiter Glo), OCI-Ly10 cells expressing BCL10 R58Q; type: cell-based; conditions: Homo sapiens, 96 h
Method: as §1, §2, §3

[3] = test system: OCI-LY10^E140X; experiment: Growth inhibition assay (CellTiter Glo), OCI-Ly10 cells expressing BCL10 E140X; type: cell-based; conditions: Homo sapiens, 96 h
Method: as §1, §2, §3

[4] = test system: HBL1^R58Q; experiment: Growth inhibition assay (CellTiter Glo), HBL1 cells expressing BCL10 R58Q; type: cell-based; conditions: Homo sapiens, 96 h
Method: as §1, §2, §3

[5] = test system: HBL1^WT; experiment: Growth inhibition assay (CellTiter Glo), HBL1 cells expressing BCL10 WT; type: cell-based; conditions: Homo sapiens, 96 h
Method: as §1, §2, §3

[6] = test system: OCI-LY10^WT; experiment: Growth inhibition assay (CellTiter Glo), OCI-Ly10 cells expressing BCL10 WT; type: cell-based; conditions: Homo sapiens, 96 h
Method: as §1, §2, §3

[7] = test system: isogenic ABC-DLBCL cells expressing BCL10^WT, BCL10^R58Q and BCL10^E140X; experiment: Growth inhibition of isogenic ABC-DLBCL cells, response described in words; type: cell-based, human; conditions: 96 hours
Method: as §1, §2, §3

[8] = molecular target: T1, Full length His-tagged MALT1 (human, UniProt Q9UDY8 2-824); experiment: negative staining EM of BCL10 filaments incubated with MALT1
T1 construct: mature; also called purified, full length MALT1; FL MALT1; not shown: His tag
T1 sequence (looked up): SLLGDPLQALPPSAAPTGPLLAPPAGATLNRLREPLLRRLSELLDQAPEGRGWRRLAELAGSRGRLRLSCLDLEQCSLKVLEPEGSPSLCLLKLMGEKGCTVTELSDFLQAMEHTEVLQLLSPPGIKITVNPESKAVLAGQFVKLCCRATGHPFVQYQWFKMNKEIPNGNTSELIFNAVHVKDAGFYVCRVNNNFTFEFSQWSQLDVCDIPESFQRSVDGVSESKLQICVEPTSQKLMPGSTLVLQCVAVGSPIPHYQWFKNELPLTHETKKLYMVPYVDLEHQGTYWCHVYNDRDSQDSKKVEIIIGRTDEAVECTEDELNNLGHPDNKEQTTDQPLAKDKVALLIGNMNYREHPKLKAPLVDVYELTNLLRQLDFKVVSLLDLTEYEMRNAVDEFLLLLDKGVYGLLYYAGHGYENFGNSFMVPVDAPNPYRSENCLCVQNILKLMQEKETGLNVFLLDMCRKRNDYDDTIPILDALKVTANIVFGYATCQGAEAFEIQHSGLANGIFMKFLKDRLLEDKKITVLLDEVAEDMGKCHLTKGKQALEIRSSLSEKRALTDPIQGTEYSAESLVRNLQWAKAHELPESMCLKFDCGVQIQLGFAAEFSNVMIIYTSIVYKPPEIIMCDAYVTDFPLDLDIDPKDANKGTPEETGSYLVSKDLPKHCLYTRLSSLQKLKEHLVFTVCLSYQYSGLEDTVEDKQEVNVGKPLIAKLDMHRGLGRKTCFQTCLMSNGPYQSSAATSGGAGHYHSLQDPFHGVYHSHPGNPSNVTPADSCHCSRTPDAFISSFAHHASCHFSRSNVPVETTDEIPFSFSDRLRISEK
Method: This new MALT1 binding domain is deleted from BCL10^E140X. The inventors next explored whether there was any impairment in MALT1 recruitment to BCL10 filaments, by generating BCL10^WT and BCL10^E140X filaments in vitro and incubating them with purified, full length MALT1 followed by negative staining electron microscopy (EM). […] However, this experiment may not provide sufficient resolution to show whether MALT1 distribution on the different BCL10 polymers was altered. Therefore, cryo-EM data were then collected on a Titan Krios microscope operating ats 300 keV and equipped with a Falcon II direct electron detector. The cryo-EM structure of BCL10^E140X filaments in complex with MALT1 was thus determined at 4.3 Å resolution.
Given that this new MALT1 binding domain is deleted from BCL10^E140X we next explored whether there was any impairment in MALT1 recruitment to BCL10 filaments, by generating BCL10^WT and BCL10^E140X filaments in vitro and incubating them with purified, full length MALT1 followed by negative staining EM. […] The structure of the BCL10^E140X filament with MALT1 was highly similar to that of the BCL10^WT filament with MALT1 at 4.9 Å resolution, in which the DDS of MALT1 bind the CARD of BCL10 and decorate the outside of the core CARD filament (FIG. 11G-I).

[9] = molecular target: the molecule itself; experiment: confocal fluorescence microscopy of Alexa488-BCL10 filaments 4 h after 3C cleavage of MBP; self-association
Method: To determine the mechanism through which BCL10 mutants might confer a biochemical gain of function, full-length BCL10^WT, BCL10^E140X and BCL10^R58Q fused to a 3C protease-cleavable maltose binding protein (MBP) at the N-terminus to keep the proteins in a monomeric state were expressed and purified (FIG. 9A). The purified proteins were labeled with Alexa488 through cysteine residues in the unstructured C-terminal region. Spontaneous filament formation was then assessed by confocal fluorescence microscopy as a function of BCL10 concentration 4 h after mixing with the 3C protease to remove the MBP tag. […] The kinetics of filament formation by these proteins was imaged at […] concentration, which is above the concentration of polymerization for WT and these mutant BCL10 proteins using time lapse confocal fluorescence microscopy.

[10] = molecular target: T2, BCL10^E140X (recombinant, after 3C cleavage of the MBP tag)
T2 chain: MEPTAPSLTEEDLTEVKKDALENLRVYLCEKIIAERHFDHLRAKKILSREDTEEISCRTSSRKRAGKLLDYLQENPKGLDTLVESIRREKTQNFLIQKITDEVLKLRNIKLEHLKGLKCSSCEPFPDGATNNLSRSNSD

[11] = molecular target: T3, BCL10^R58Q (recombinant, full-length, after 3C cleavage of the MBP tag)
T3 chain: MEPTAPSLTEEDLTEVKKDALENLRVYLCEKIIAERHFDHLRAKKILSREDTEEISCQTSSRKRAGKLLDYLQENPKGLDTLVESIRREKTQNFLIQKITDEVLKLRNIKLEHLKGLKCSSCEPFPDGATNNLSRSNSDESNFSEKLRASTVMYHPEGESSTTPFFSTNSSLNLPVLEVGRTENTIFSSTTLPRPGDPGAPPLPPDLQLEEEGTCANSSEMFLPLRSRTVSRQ

[12] = molecular target: T4, BCL10^WT (recombinant, full-length, after 3C cleavage of the MBP tag)
T4 chain: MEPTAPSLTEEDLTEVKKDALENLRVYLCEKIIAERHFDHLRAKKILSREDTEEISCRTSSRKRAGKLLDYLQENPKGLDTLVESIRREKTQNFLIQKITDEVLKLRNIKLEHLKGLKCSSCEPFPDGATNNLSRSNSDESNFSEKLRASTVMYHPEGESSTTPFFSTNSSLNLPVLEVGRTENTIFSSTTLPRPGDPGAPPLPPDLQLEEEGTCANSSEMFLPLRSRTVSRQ

[13] = read-out: IC50, growth inhibition, BTK inhibitors
[14] = read-out: IC50, growth inhibition, MALT1 inhibitors

CC#CC(=O)N1CCC[C@H]1c1nc(-c2ccc(C(=O)Nc3ccccn3)cc2)c2c(N)nccn12 [Acalabrutinib]
IC50 [1, 13]: 28.2 ± 21.2 nM
IC50 [2, 13]: 7.69 ± 0.59 nM
IC50 [3, 13]: 5.39 ± 0.77 nM
IC50 [4, 13]: 5.54 ± 0.32 nM
IC50 [5, 13]: 4.75 ± 2.11 nM
IC50 [6, 13]: 6.38 ± 0.35 nM

CO[C@H](c1c(NC(=O)Nc2cnc(-n3nccn3)c(Cl)c2)cnc2cc(Cl)nn12)[C@@H](C)OC [MLT-748]
IC50 [1, 14]: 540 ± 500 nM
IC50 [2, 14]: 240 ± 50 nM
IC50 [3, 14]: 90 ± 60 nM
IC50 [4, 14]: 3320 ± 1460 nM
IC50 [5, 14]: 1940 ± 200 nM
growth response in words ([7]; BCL10^R58Q ABC-DLBCL cells): generally sensitive
growth response in words ([7]; BCL10^WT ABC-DLBCL cells): generally sensitive
IC50 [6, 14]: 70 ± 6 nM

C=CC(=O)N1CCC([C@@H]2CCNc3c(C(N)=O)c(-c4ccc(Oc5ccccc5)cc4)nn32)CC1 [Zanubrutinib]
IC50 [1, 13]: 9.31 ± 6.22 nM
IC50 [2, 13]: 1.81 ± 0.33 nM
IC50 [3, 13]: 2.86 ± 0.13 nM
IC50 [4, 13]: 1.58 ± 0.06 nM
IC50 [5, 13]: 1.46 ± 0.32 nM
IC50 [6, 13]: 1.74 ± 0.08 nM

B1: BCL10^E140X (recombinant, after 3C cleavage of the MBP tag) (other)
chain: MEPTAPSLTEEDLTEVKKDALENLRVYLCEKIIAERHFDHLRAKKILSREDTEEISCRTSSRKRAGKLLDYLQENPKGLDTLVESIRREKTQNFLIQKITDEVLKLRNIKLEHLKGLKCSSCEPFPDGATNNLSRSNSD
modifications: Alexa488 (C5-maleimide) on cysteine residues in the confocal and quenching assays
notes: Range 1-139 from the name E140X; Made as His-MBP-3C site-BCL10; MBP removed by 3C protease; also called E140X filaments; BCL10 (1-140)
binding result [8]: binds
concentration of polymerization [9]: ≤ 0.1 µM

B2: Full length His-tagged MALT1 (protein)
chain: SLLGDPLQALPPSAAPTGPLLAPPAGATLNRLREPLLRRLSELLDQAPEGRGWRRLAELAGSRGRLRLSCLDLEQCSLKVLEPEGSPSLCLLKLMGEKGCTVTELSDFLQAMEHTEVLQLLSPPGIKITVNPESKAVLAGQFVKLCCRATGHPFVQYQWFKMNKEIPNGNTSELIFNAVHVKDAGFYVCRVNNNFTFEFSQWSQLDVCDIPESFQRSVDGVSESKLQICVEPTSQKLMPGSTLVLQCVAVGSPIPHYQWFKNELPLTHETKKLYMVPYVDLEHQGTYWCHVYNDRDSQDSKKVEIIIGRTDEAVECTEDELNNLGHPDNKEQTTDQPLAKDKVALLIGNMNYREHPKLKAPLVDVYELTNLLRQLDFKVVSLLDLTEYEMRNAVDEFLLLLDKGVYGLLYYAGHGYENFGNSFMVPVDAPNPYRSENCLCVQNILKLMQEKETGLNVFLLDMCRKRNDYDDTIPILDALKVTANIVFGYATCQGAEAFEIQHSGLANGIFMKFLKDRLLEDKKITVLLDEVAEDMGKCHLTKGKQALEIRSSLSEKRALTDPIQGTEYSAESLVRNLQWAKAHELPESMCLKFDCGVQIQLGFAAEFSNVMIIYTSIVYKPPEIIMCDAYVTDFPLDLDIDPKDANKGTPEETGSYLVSKDLPKHCLYTRLSSLQKLKEHLVFTVCLSYQYSGLEDTVEDKQEVNVGKPLIAKLDMHRGLGRKTCFQTCLMSNGPYQSSAATSGGAGHYHSLQDPFHGVYHSHPGNPSNVTPADSCHCSRTPDAFISSFAHHASCHFSRSNVPVETTDEIPFSFSDRLRISEK
BCL10 polymerization kinetics by fluorescence quenching (3 µM Alexa488-BCL10, MALT1 at 0, 1.5, 3, 6 and 12 µM) [10]: there was little suppression of BCL10^E140X polymerization by MALT1 at any dose
BCL10 polymerization kinetics by fluorescence quenching (3 µM Alexa488-BCL10, MALT1 at 0, 1.5, 3, 6 and 12 µM) [11]: increasing doses of MALT1 suppressed BCL10^WT and BCL10^R58Q filament formation in a dose dependent manner
BCL10 polymerization kinetics by fluorescence quenching (3 µM Alexa488-BCL10, MALT1 at 0, 1.5, 3, 6 and 12 µM) [12]: increasing doses of MALT1 suppressed BCL10^WT and BCL10^R58Q filament formation in a dose dependent manner

B3: BCL10^WT (recombinant, full-length, after 3C cleavage of the MBP tag) (other)
chain: MEPTAPSLTEEDLTEVKKDALENLRVYLCEKIIAERHFDHLRAKKILSREDTEEISCRTSSRKRAGKLLDYLQENPKGLDTLVESIRREKTQNFLIQKITDEVLKLRNIKLEHLKGLKCSSCEPFPDGATNNLSRSNSDESNFSEKLRASTVMYHPEGESSTTPFFSTNSSLNLPVLEVGRTENTIFSSTTLPRPGDPGAPPLPPDLQLEEEGTCANSSEMFLPLRSRTVSRQ
modifications: Alexa488 (C5-maleimide) on cysteine residues in the confocal and quenching assays
notes: Made as His-MBP-3C site-BCL10 (vector pDB-His-MBP); MBP removed by 3C protease to start filament formation; Forms helical filaments (number of copies not fixed); also called BCL10 FL; BCL10 WT filaments
binding result [8]: binds
concentration of polymerization [9]: ~0.5 µM

B4: BCL10^R58Q (recombinant, full-length, after 3C cleavage of the MBP tag) (other)
chain: MEPTAPSLTEEDLTEVKKDALENLRVYLCEKIIAERHFDHLRAKKILSREDTEEISCQTSSRKRAGKLLDYLQENPKGLDTLVESIRREKTQNFLIQKITDEVLKLRNIKLEHLKGLKCSSCEPFPDGATNNLSRSNSDESNFSEKLRASTVMYHPEGESSTTPFFSTNSSLNLPVLEVGRTENTIFSSTTLPRPGDPGAPPLPPDLQLEEEGTCANSSEMFLPLRSRTVSRQ
modifications: Alexa488 (C5-maleimide) on cysteine residues in the confocal and quenching assays
notes: Made as His-MBP-3C site-BCL10; MBP removed by 3C protease; Forms filaments; also called R58Q filaments
concentration of polymerization [9]: ~0.25 µM
